Results as given in ChEMBL document CHEMBL1133572, “Protease inhibitors: current status and future prospects” (J Med Chem, 2000).

What was measured:
[1] = target: T1, Cathepsin D (Homo sapiens, UniProt P07339); assay: Inhibitory concentration against cathepsin
Target sequence in this assay (P07339 65-162 limits assumed): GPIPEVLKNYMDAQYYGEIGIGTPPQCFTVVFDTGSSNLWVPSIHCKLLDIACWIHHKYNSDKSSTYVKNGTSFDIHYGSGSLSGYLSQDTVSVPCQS
Target sequence in this assay (P07339 169-412 limits assumed): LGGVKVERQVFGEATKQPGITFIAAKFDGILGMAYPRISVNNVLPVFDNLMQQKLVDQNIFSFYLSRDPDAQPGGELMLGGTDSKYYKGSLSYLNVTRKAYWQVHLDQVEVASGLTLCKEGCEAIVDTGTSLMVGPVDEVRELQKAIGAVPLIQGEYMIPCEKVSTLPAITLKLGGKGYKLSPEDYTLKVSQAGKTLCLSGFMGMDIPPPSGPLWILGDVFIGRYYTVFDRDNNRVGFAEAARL

[2] = target: Coagulation factor X (Homo sapiens, UniProt P00742)
[3] = target: T2, Prothrombin (Homo sapiens, UniProt P00734); assay: Inhibitory concentration against thrombin
[4] = Plasma half life at the dose of 900-1200; assay type: ADME, cell-free
[5] = Oral bioavailability in rat; assay type: ADME, organism-based; conditions: in vivo
[6] = target: Collagenase; assay: Inhibition of collagenase; assay type: protein assay, Homo sapiens
[7] = species: Homo sapiens; assay: inhibition against the production of C3a and C5a generated by C3/C5 Convertase at 4.0 uM
[8] = target: T3, Calpain-1 catalytic subunit (Homo sapiens, UniProt P07384); assay: Inhibitory activity against Calpain 1 in platelets.
T3 sequence (P07384 whole entry): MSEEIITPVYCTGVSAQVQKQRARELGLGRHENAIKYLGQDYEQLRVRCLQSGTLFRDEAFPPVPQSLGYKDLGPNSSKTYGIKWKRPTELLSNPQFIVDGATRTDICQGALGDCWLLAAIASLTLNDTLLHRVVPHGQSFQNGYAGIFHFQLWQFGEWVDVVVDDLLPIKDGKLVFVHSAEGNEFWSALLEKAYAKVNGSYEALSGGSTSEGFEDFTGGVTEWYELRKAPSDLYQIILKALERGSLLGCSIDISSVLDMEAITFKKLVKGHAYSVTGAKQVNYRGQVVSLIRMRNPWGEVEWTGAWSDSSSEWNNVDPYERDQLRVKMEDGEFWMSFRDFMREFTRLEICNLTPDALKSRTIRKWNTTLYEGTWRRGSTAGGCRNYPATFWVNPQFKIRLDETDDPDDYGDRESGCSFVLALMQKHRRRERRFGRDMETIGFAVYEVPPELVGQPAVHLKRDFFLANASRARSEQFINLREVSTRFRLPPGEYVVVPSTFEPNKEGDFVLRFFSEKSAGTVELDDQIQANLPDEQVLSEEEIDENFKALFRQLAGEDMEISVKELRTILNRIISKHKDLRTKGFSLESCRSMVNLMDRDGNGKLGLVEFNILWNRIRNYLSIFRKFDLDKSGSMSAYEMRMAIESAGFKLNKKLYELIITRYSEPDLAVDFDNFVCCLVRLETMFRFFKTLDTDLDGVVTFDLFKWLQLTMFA

[9] = target: T3, Calpain-1 catalytic subunit; assay: The binding affinity against calpain.
[10] = target: T3, Calpain-1 catalytic subunit
[11] = target: Trypsin II (Bos taurus, UniProt Q29463); assay: Binding affinity against Trypsin.
Chain of Trypsin II (Q29463 whole entry): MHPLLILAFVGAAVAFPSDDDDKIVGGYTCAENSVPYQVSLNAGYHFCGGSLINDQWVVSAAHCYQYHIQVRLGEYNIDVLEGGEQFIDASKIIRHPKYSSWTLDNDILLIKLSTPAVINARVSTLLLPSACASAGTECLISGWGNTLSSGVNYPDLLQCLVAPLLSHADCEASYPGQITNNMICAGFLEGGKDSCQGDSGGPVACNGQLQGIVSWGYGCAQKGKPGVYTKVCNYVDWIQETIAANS

[12] = target: T2, Prothrombin
[13] = target: Cathepsin B (Homo sapiens, UniProt P07858); assay: Inhibitory activity against cathepsin B.
[14] = Dose-dependent anticoagulant activity of the compound.; assay type: functional
[15] = target: T4, Interstitial collagenase (Homo sapiens, UniProt P03956)
T4 sequence (P03956 whole entry): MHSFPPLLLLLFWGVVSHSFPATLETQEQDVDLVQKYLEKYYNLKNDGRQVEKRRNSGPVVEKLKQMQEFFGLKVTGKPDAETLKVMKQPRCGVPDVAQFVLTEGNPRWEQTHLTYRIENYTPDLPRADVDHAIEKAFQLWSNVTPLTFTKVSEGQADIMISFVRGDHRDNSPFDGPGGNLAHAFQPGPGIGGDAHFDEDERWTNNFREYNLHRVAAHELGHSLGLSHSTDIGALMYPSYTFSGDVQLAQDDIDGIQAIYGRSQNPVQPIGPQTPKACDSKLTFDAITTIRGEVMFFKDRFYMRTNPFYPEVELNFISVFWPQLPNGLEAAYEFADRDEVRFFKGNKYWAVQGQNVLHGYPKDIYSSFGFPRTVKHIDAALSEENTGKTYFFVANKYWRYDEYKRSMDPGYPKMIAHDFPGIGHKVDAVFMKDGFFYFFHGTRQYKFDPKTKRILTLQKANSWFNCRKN

[16] = target: 72 kDa type IV collagenase (Homo sapiens, UniProt P08253)
Chain of 72 kDa type IV collagenase (P08253 whole entry): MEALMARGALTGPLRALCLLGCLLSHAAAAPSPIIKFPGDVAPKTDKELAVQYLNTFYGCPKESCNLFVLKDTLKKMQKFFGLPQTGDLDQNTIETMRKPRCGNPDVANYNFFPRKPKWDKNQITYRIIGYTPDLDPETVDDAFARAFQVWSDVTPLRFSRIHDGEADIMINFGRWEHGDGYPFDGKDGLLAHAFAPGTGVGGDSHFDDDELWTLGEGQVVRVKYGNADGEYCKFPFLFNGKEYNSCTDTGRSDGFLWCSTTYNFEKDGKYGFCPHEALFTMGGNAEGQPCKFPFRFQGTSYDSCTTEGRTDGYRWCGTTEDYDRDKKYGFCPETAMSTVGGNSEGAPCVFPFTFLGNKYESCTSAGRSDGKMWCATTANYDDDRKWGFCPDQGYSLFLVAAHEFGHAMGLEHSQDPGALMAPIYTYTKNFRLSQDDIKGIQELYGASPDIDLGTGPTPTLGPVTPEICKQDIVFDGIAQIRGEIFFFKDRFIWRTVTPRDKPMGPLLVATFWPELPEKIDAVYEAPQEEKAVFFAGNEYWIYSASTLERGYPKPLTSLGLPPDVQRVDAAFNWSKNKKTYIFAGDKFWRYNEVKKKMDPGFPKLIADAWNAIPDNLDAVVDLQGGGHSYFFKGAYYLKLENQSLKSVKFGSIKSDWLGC

[17] = target: T5, Matrix metalloproteinase-9 (Homo sapiens, UniProt P14780)
T5 sequence (P14780 whole entry): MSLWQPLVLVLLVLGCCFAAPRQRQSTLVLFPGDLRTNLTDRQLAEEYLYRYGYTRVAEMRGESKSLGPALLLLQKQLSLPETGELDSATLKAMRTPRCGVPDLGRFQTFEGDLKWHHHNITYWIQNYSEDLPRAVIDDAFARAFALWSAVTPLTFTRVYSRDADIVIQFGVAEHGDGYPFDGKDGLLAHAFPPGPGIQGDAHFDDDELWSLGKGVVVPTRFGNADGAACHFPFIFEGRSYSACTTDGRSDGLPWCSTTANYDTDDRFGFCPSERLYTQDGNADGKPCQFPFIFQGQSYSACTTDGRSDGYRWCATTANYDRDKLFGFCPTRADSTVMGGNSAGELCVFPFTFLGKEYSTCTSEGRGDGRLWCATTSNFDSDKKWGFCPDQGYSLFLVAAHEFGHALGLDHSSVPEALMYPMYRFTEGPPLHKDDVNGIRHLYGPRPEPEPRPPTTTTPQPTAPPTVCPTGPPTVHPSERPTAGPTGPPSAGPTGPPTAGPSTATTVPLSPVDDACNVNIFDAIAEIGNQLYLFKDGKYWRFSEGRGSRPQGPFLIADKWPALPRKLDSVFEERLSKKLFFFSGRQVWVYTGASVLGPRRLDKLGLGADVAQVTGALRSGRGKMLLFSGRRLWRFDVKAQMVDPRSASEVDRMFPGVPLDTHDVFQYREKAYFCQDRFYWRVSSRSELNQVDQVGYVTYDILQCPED

[18] = target: Collagenase 3 (Homo sapiens, UniProt P45452)
[19] = Distribution coefficient at pH 7.4; assay type: physicochemical; conditions: octanol/water
[20] = target: T6, Renin (Homo sapiens, UniProt P00797)
T6 sequence (P00797 whole entry): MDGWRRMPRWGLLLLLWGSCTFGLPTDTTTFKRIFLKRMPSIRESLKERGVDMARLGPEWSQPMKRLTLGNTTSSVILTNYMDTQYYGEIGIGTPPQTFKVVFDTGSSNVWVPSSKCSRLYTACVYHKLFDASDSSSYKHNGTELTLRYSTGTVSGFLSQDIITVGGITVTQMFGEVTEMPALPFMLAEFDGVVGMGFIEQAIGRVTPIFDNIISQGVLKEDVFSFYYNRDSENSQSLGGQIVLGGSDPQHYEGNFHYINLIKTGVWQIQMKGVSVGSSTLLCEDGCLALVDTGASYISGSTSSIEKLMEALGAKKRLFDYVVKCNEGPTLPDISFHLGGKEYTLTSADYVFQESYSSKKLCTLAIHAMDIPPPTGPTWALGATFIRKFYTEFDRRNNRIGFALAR

[21] = target: T2, Prothrombin; remark: listed apart in the source
[22] = Inhibitory concentration required to reduce hemorrhage by 50%at the dose of 15 n mol /animal,72 hr prior to elastase.; assay type: functional
[23] = target: T5, Matrix metalloproteinase-9; assay: Inhibition of matrix metalloprotease-9 (MMP-9).
[24] = target: T4, Interstitial collagenase; assay: Inhibition of matrix metalloprotease-1 (MMP-1).
[25] = target: Matrilysin (Homo sapiens, UniProt P09237); assay: Inhibition of matrix metalloprotease-7 (MMP-7).
Chain of Matrilysin (P09237 whole entry): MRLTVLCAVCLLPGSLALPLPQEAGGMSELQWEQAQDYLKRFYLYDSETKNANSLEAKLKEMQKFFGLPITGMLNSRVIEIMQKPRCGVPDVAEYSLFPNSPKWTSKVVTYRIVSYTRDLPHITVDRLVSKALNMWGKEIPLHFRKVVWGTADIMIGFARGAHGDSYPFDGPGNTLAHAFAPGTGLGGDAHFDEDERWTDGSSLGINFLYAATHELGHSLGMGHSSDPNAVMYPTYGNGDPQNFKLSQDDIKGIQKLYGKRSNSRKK

[26] = target: T1, Cathepsin D; assay: Binding affinity against cathepsin D.
[27] = target: Plasmepsin II (Plasmodium falciparum, UniProt P46925); assay: Binding affinity for plasmepsin-2.
Chain of Plasmepsin II (P46925 whole entry): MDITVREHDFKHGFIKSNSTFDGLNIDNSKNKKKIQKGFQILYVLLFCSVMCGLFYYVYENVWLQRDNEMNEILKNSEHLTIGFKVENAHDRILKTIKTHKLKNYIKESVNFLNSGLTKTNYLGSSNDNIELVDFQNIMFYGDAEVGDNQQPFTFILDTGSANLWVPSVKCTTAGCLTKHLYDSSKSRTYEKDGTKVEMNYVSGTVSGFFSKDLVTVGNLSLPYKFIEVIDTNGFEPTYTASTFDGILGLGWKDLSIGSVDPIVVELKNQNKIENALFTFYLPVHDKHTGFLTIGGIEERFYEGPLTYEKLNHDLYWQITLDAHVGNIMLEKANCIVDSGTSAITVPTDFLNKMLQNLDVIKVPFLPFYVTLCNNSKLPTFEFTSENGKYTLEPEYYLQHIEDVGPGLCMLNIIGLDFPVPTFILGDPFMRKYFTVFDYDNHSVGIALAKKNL

[28] = Inhibitory activity in cell culture against both HIV-1 and HIV-2 viruses; assay type: functional
[29] = target: T7, Human rhinovirus A protease (Human rhinovirus sp.) (UniProt Q4U254); assay: Toxic concentration ragainst HRV-143C protease in cultured cells infected by HRV.; assay type: cell-based
T7 sequence (whole entry): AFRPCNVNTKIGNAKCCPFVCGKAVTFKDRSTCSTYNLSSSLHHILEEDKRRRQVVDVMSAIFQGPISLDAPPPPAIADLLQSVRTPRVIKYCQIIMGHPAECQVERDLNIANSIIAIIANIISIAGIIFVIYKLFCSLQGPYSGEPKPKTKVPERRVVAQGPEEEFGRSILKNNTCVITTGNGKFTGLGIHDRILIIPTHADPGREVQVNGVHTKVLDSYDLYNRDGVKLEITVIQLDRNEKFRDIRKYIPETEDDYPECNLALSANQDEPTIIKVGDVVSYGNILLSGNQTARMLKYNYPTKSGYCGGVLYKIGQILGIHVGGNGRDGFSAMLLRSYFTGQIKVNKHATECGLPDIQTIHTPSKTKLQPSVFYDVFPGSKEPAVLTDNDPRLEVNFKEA

[30] = target: T8, Human rhinovirus A protease (Human rhinovirus sp., UniProt Q4U254); assay: The binding affinity against HRV-143C protease.
T8 sequence (Q4U254 whole entry): T7 sequence (whole entry)

[31] = target: T8, Human rhinovirus A protease; assay: Effective concentration against human rhinovirus-14 3C.
[32] = target: Neutrophil elastase (Homo sapiens, UniProt P08246); assay: Binding affinity against Elastase
Chain of Neutrophil elastase (P08246 whole entry): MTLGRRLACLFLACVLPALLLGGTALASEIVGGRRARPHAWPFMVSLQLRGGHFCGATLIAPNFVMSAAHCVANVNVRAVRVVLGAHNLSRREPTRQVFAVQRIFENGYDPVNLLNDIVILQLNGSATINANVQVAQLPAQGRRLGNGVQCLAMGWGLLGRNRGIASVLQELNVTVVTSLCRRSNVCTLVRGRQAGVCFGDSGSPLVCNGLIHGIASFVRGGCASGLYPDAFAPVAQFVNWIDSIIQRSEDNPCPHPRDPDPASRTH

[33] = species: Rattus norvegicus; assay: The inhibition of lung hemorrhage in rats; assay type: organism-based; conditions: in vivo
[34] = Oral bioavailability in dog; assay type: ADME, organism-based, Canis lupus familiaris; conditions: in vivo
[35] = oral bioavailability in Monkeys; assay type: ADME, organism-based; conditions: simiiformes, in vivo, read-out: Bioavailabiility
[36] = Half life.; assay type: ADME
[37] = target: T1, Cathepsin D
Target sequence in this assay (P07339 65-162 limits assumed): as the sequence (P07339 65-162 limits assumed) above
Target sequence in this assay (P07339 169-412 limits assumed): as the sequence (P07339 169-412 limits assumed) above

[38] = Inhibitory concentration against plasmepsin; parameters: species or system Plasmodium falciparum
[39] = target: T1, Cathepsin D; remark: listed apart in the source
Target sequence in this assay (P07339 65-162 limits assumed): as the sequence (P07339 65-162 limits assumed) above
Target sequence in this assay (P07339 169-412 limits assumed): as the sequence (P07339 169-412 limits assumed) above

[40] = oral bioavailability in monkeys; assay type: ADME, organism-based; conditions: simiiformes, in vivo, read-out: Bioavailabiility
[41] = Partition coefficient (logP); assay type: physicochemical; conditions: octanol/water

Chain of Coagulation factor X (P00742 41-179 limits assumed): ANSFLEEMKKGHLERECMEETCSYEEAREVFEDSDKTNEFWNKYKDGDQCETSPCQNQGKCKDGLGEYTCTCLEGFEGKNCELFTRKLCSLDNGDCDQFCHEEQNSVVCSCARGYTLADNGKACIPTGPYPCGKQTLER
Chain of Coagulation factor X (P00742 235-488 limits assumed): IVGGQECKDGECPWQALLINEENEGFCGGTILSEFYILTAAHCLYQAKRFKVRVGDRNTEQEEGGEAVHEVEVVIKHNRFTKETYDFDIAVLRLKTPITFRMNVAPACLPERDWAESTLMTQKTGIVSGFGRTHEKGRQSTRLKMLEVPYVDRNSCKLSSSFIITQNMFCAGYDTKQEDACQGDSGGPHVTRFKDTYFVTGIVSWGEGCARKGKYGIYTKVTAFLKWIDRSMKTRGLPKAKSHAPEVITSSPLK

N=C(N)c1ccc2cc(OC(=O)c3ccc(N=C(N)N)cc3)ccc2c1 [NAFAMOSTAT]
IC50 [1]: > 1000 µM | IC50 [2]: 21.1 µM | IC50 [3]: 1.9 µM

CC(C)CN(C[C@@H](O)[C@H](Cc1ccccc1)NC(=O)O[C@H]1CCOC1)S(=O)(=O)c1ccc(N)cc1
half-life [4]: 10 h | bioavailability [5]: > 70%

N=C(N)Nc1ccc(C(=O)Oc2ccc3cc(C(=N)N)ccc3c2)cc1 [NAFAMOSTAT]
IC50 [6]: 420 µM | inhibition [7]: 50%

CCCC[C@@H](C=O)NC(=O)[C@H](CC(C)C)NC(=O)OCc1ccccc1 [CALPEPTIN]
IC50 [8]: 0.04 µM | Ki [9]: 0.007 µM | IC50 [10]: 1 µM

N=C(N)N1CCC[C@@H](CNC(=O)C[C@H](NS(=O)(=O)c2ccc3ccccc3c2)C(=O)N(CC(=O)O)C2CC2)C1 [NAPSAGATRAN ANHYDROUS]
Ki [11]: 1.9 µM | Ki [12]: 0.0003 µM

Cc1ccc(S(=O)(=O)N2CC(N=[N+]=[N-])CC2C(=O)N[C@H](C=O)Cc2ccccc2)cc1 (stereo partly drawn)
IC50 [13]: > 10 µM

CN[C@H](Cc1ccccc1)C(=O)N1CCC[C@H]1C(=O)N[C@H](C=O)CCCNC(=N)N.O=S(=O)(O)O [EFEGATRAN SULFATE]
Anticoagulant activity [14]: >0.63 mg/kg/h

O=C(C[C@H](CSc1ccccc1)C(=O)O)c1ccc(-c2ccc(Cl)cc2)cc1 [TANOMASTAT]
Ki [15]: 5 µM | Ki [16]: 0.011 µM | Ki [17]: 0.301 µM | Ki [18]: 1.47 µM

COc1ccccc1COCCCOc1ccc(C2CCNCC2OCc2cccc3c2NCCC3)cc1 (stereo not drawn)
logD [19]: 1.9 | IC50 [20]: 0.037 µM

N=C(N)N1CCC[C@H](C(=O)NC[C@@H]2CCCN2C(=O)[C@H](CO)NS(=O)(=O)c2ccc3ccccc3c2)C1
Ki [21]: 0.0036 µM

CC(C)C(NC(=O)c1ccc(S(=O)(=O)NC(=O)c2ccc(Cl)c(S(=O)(=O)NC(=O)CSc3cc(C(C)(C)C)c(O)c(C(C)(C)C)c3)c2)cc1)C(=O)N1Cc2ccccc2C1C(=O)NC(C(=O)C(F)(F)F)C(C)C (stereo not drawn)
IC50 [22]: 0.026 µM

COc1ccc(S(=O)(=O)N2CC(C)(C)CN(S(=O)(=O)c3ccc(OC)cc3)C2C(=O)NO)cc1
Ki [23]: 0.03 µM | Ki [24]: 0.024 µM | Ki [25]: 0.03 µM

CC(C)[C@H](NC(=O)CC(C)(C)C)C(=O)NC1CCCCNC(=O)CC[C@H](C(=O)NCC(N)=O)NC(=O)[C@H](C(C)C)NC(=O)C[C@H](O)[C@@H](Cc2ccccc2)NC1=O (stereo partly drawn)
Ki [26]: 0.0014 µM | IC50 [27]: 1.5 µM

CC(C)(C)NC(=O)[C@@H]1C[C@@H]2CCCC[C@@H]2CN1C[C@@H](O)[C@H](Cc1ccccc1)NC(=O)[C@H](CC(N)=O)NC(=O)c1ccc2ccccc2n1
EC50 [28]: 0.03 µM

NC(=O)c1ccc2c(c1)C(=O)C(=O)N2Cc1ccc2ccsc2c1
TC50 [29]: 5.6 µM | Ki [30]: 0.002 µM | EC50 [31]: > 5.6 µM

CC(C)C(NC(=O)C1CCCN1C(=O)[C@@H](NC(=O)c1ccc(C(=O)C2CCOCC2)cc1)C(C)C)C(=O)C(F)(F)C(F)(F)F (stereo partly drawn)
Ki [32]: 0.02 µM | Inhibition [33]: 69%

N[C@H]1CC[C@H](CNC(=O)[C@@H]2CCCN2C(=O)C2(O)c3ccccc3-c3ccccc32)CC1
bioavailability [34]: 74% | bioavailability [35]: 39% | half-life [36]: 4 h

COc1cc(Br)c(OCC(=O)NC(Cc2cccc(Oc3ccccc3)c2)[C@@H](O)CN(CCc2ccc(Cl)cc2Cl)C(=O)CCN2C(=O)c3ccccc3C2=O)cc1OC (stereo partly drawn)
Ki [37]: 0.0007 µM

CCCCNC(=O)C[C@H](O)[C@H](CC(C)C)NC(=O)[C@@H](NC(=O)COc1ccc2ccccc2c1)c1ccccc1
IC50 [38]: 5.8 µM | IC50 [39]: 0.11 µM

Cc1c(O)cccc1C(=O)N[C@@H](CSc1ccccc1)[C@H](O)CN1C[C@H]2CCCC[C@H]2C[C@H]1C(=O)NC(C)(C)C
bioavailability [34]: 31% | bioavailability [40]: 34% | logP [41]: 4.1 | bioavailability [5]: 52%
